The assay has as its target T1, Recombinant (1-346) HPK1 (h) (Homo sapiens, UniProt Q92918).
T1 construct: Recombinant (1-346) HPK1 (h) is incubated with 8 mM MOPS pH 7.0
T1 sequence (Q92918 1-346): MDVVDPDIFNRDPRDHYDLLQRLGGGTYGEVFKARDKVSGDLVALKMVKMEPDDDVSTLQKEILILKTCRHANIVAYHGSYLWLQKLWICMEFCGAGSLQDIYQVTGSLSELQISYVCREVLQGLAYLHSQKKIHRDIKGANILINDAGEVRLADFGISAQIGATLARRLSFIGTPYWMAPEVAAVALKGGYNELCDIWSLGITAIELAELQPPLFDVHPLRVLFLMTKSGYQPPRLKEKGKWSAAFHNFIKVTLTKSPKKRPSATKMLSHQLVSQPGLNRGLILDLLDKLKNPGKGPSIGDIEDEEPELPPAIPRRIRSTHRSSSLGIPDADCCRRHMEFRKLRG
The assay is described as follows: HPK1 human STE kinase enzymatic radiometric assay. The class given is biochemical. The note with it: read-out: HPK1 IC50 nM Range. The method, then: (a) HPK1 Human STE Kinase Enzymatic Radiometric Assay
A stock solution of 10 mM of test compound is prepared in DMSO. The compound plate was prepared by 3-fold and 9-point serial dilutions. Recombinant (1-346) HPK1 (h) is incubated with 8 mM MOPS pH 7.0, 0.2 mM EDTA, 0.33 mg/mL myelin basic protein, 10 mM MgAcetate and [gamma-33P]-ATP (specific activity and concentration as required). The reaction is initiated by the addition of the Mg/ATP mix. After incubation for 40 minutes at RT, the reaction is stopped by the addition of phosphoric acid to a concentration of 0.5%, 10 μL of the reaction is then spotted onto a P30 filtermat and washed four times for 4 minutes in 0.425% phosphoric acid and once in methanol prior to drying and scintillation counting. For more details of kinase assay protocols, see: Gao, Y. et. al.; Biochem J.451 (2): 313-328, 2013.

`Nc1nc(F)c(-c2ccc(OC3CCOCC3)c(CN3CCC3)c2)nc1-c1cc(F)c2c(c1)CCNC2=O` [Example I-210, 6-(3-amino-6-(3-(azetidin-1-ylmethyl)-4-((tetrahydro-2H-pyran-4-yl)oxy)phenyl)-5-fluoropyrazin-2-yl)-8-fluoro-3,4-dihydroisoquinolin-1(2H)-one]: the IC50 (commonly the concentration that inhibits the measured activity by half) lay in the range of 11 to 100 nM.
For `CN(C)Cc1c(N2CCOCC2)ccc(-c2nc(-c3ccc4c(c3)CCNC4=O)c(N)nc2F)c1F` [Example I-240], the half-maximal inhibitory concentration (IC50) was 11 to 100 nM.
For `Cc1c[nH]c(=O)c2ccc(-c3nc(-c4ccc5c(c4)[C@H](N(C)C)CCO5)c(F)nc3N)cc12` [Example I-285, (R)-6-(3-amino-6-(4-(dimethylamino)chroman-6-yl)-5-fluoropyrazin-2-yl)-4-methylisoquinolin-1(2H)-one] the value was 0.1 to 10 nM.
For the compound `CCN(C)Cc1cc(-c2nc(-c3ccc4c(=O)[nH]cc(C)c4c3)c(N)nc2F)cc(C)c1OC` [Example I-299, 6-(3-amino-6-(3-((ethyl(methyl)amino)methyl)-4-methoxy-5-methylphenyl)-5-fluoropyrazin-2-yl)-4-methylisoquinolin-1(2H)-one], the 50% inhibitory concentration (IC50) lay within 11 to 100 nM.
For the compound `Cc1[nH]c(=O)c2ccc(-c3nc(-c4ccc(N5CC6(CN(C)CCO6)C5)cc4)c(F)nc3N)cc2c1F` [Example I-123, 6-(3-amino-5-fluoro-6-(4-(8-methyl-5-oxa-2,8-diazaspiro[3.5]nonan-2-yl)phenyl)pyrazin-2-yl)-4-fluoro-3-methylisoquinolin-1(2H)-one], the IC50 lay in the range of 11 to 100 nM.
`COC1CCN(Cc2cc(-c3nc(-c4ccc5c(c4)CCNC5=O)c(N)nc3F)ccc2N2CCOCC2)CC1` [Example I-138, 6-(3-amino-5-fluoro-6-(3-((4-methoxypiperidin-1-yl)methyl)-4-morpholinophenyl)pyrazin-2-yl)-3,4-dihydroisoquinolin-1(2H)-one]: the IC50 is 11 to 100 nM.
Regarding `Cc1cc(-c2nc(-c3ccc4c(c3)CCNC4=O)c(N)nc2F)cc2c1CCN(C)C2` [Example I-294, 6-(3-amino-6-(2,5-dimethyl-1,2,3,4-tetrahydroisoquinolin-7-yl)-5-fluoropyrazin-2-yl)-3,4-dihydroisoquinolin-1(2H)-one], the IC50 fell in the range of 0.1 to 10 nM.
As to `Cc1[nH]c(=O)c2c(F)cc(-c3nc(-c4ccc(N5CCN(CC6CC6)CC5)cc4)c(F)nc3N)cc2c1F` [Example I-115, 6-(3-amino-6-(4-(4-(cyclopropylmethyl)piperazin-1-yl)phenyl)-5-fluoropyrazin-2-yl)-4,8-difluoro-3-methylisoquinolin-1(2H)-one], the IC50 lay in the range of 0.1 to 10 nM.
In the case of `Cc1c[nH]c(=O)c2cc(F)c(-c3nc(-c4ccc(N5CCN(C(C)C)CC5)cc4)c(F)nc3N)cc12` [Example I-234, 6-(3-amino-5-fluoro-6-(4-(4-isopropylpiperazin-1-yl)phenyl)pyrazin-2-yl)-7-fluoro-4-methylisoquinolin-1(2H)-one], the IC50 was 0.1 to 10 nM.
Take `CC(C)N1CCN(c2ccc(-c3nc(-c4cc(F)c5c(=O)[nH]cc(Cl)c5c4)c(N)nc3F)cc2)CC1` [Example I-90, 6-(3-amino-5-fluoro-6-(4-(4-isopropylpiperazin-1-yl)phenyl)pyrazin-2-yl)-4-chloro-8-fluoroisoquinolin-1(2H)-one]: the IC50 was in the range of 0.1 to 10 nM.
In the case of `Nc1nc(F)c(-c2ccc(N3CCN(CCC(F)F)CC3)cc2)nc1-c1ccc2c(=O)[nH]ccc2c1` [Example I-86, 6-(3-amino-6-(4-(4-(3,3-difluoropropyl)piperazin-1-yl)phenyl)-5-fluoropyrazin-2-yl)isoquinolin-1(2H)-one], the half-inhibitory concentration (IC50) fell in the range of 11 to 100 nM.
For `COC1CCN(Cc2cc(-c3nc(-c4ccc5c(c4)CCNC5=O)c(N)nc3F)ccc2N2CCSCC2)CC1` [Example I-126, 6-(3-amino-5-fluoro-6-(3-((4-methoxypiperidin-1-yl)methyl)-4-thiomorpholinophenyl)pyrazin-2-yl)-3,4-dihydroisoquinolin-1(2H)-one], the IC50 fell in the range of 11 to 100 nM.
For `CCN(C)Cc1c(N2CCOCC2)ccc(-c2nc(-c3cc(F)c4c(c3)CCNC4=O)c(N)nc2F)c1F` [Example I-247, 6-(3-amino-6-(3-((ethyl(methyl)amino)methyl)-2-fluoro-4-morpholinophenyl)-5-fluoropyrazin-2-yl)-8-fluoro-3,4-dihydroisoquinolin-1(2H)-one], the IC50 was in the range of 11 to 100 nM.
Take `Cc1nc2cc(-c3nc(-c4ccc(N5CCOCC5)c(CN(C)C)c4)c(F)nc3N)ccc2c(=O)[nH]1` [Example I-77, 7-(3-amino-6-(3-((dimethylamino)methyl)-4-morpholinophenyl)-5-fluoropyrazin-2-yl)-2-methylquinazolin-4(3H)-one]: the IC50 lay within 11 to 100 nM.
As for `COCCN(C)Cc1cc(-c2nc(-c3ccc4c(c3)CCNC4=O)c(N)nc2F)ccc1C1CCOCC1` [Example I-174, 6-(3-amino-5-fluoro-6-(3-(((2-methoxyethyl)(methyl)amino)methyl)-4-(tetrahydro-2H-pyran-4-yl)phenyl)pyrazin-2-yl)-3,4-dihydroisoquinolin-1(2H)-one], the IC50 lay in the range of 0.1 to 10 nM.
In the case of `COc1ccc(-c2nc(-c3ccc4c(c3)CCNC4=O)c(N)nc2F)cc1CN(C)C` [Example I-250, 6-(3-amino-6-(3-((dimethylamino)methyl)-4-methoxyphenyl)-5-fluoropyrazin-2-yl)-3,4-dihydroisoquinolin-1(2H)-one], the IC50 lay within 11 to 100 nM.
As to `CN(C)Cc1cc(-c2nc(-c3ccc4c(=O)[nH]cc(F)c4c3)c(N)nc2F)ccc1O` [Example I-305, 6-(3-amino-6-(3-((dimethylamino)methyl)-4-hydroxyphenyl)-5-fluoropyrazin-2-yl)-4-fluoroisoquinolin-1(2H)-one], the IC50 lay in the range of 0.1 to 10 nM.
Consider `Cc1nc2cc(-c3nc(-c4ccc(N5C[C@@H](C)O[C@@H](C)C5)c(CN(C)C)c4)c(F)nc3N)cc(F)c2c(=O)[nH]1` [Example I-196, 7-(3-amino-6-(3-((dimethylamino)methyl)-4-((2R,6S)-2,6-dimethylmorpholino)phenyl)-5-fluoropyrazin-2-yl)-5-fluoro-2-methylquinazolin-4(3H)-one], for which the half-inhibitory concentration (IC50) lay within 11 to 100 nM.
Regarding `CN(C)[C@@H]1COc2ccc(-c3nc(-c4ccc5c(c4)C(F)(F)CNC5=O)c(N)nc3F)cc21` [Example I-256, (S)-6-(3-amino-6-(3-(dimethylamino)-2,3-dihydrobenzofuran-5-yl)-5-fluoropyrazin-2-yl)-4,4-difluoro-3,4-dihydroisoquinolin-1(2H)-one], the IC50 lay within 0.1 to 10 nM.
For the compound `COC1CN(Cc2cc(-c3nc(-c4cc5c(cc4F)C(=O)NCC5)c(N)nc3F)ccc2N2CCOCC2)C1` [Example I-189, 6-(3-amino-5-fluoro-6-(3-((3-methoxyazetidin-1-yl)methyl)-4-morpholinophenyl)pyrazin-2-yl)-7-fluoro-3,4-dihydroisoquinolin-1(2H)-one], the concentration for half-maximal inhibition (IC50) was in the range of 0.1 to 10 nM.
Regarding `Nc1nc(F)c(-c2ccc(N3CCN(C4COC4)CC3)cc2)nc1-c1cc2c(cc1F)C(=O)NCC2` [Example I-45, 6-(3-amino-5-fluoro-6-(4-(4-(oxetan-3-yl)piperazin-1-yl)phenyl)pyrazin-2-yl)-7-fluoro-3,4-dihydroisoquinolin-1(2H)-one], the half-maximal inhibitory concentration (IC50) was 11 to 100 nM.
`Nc1nc(F)c(-c2ccc(N3CCOCC3)cn2)nc1-c1ccc2c(c1)CCNC2=O` [Example I-201, 6-(3-amino-5-fluoro-6-(5-morpholinopyridin-2-yl)pyrazin-2-yl)-3,4-dihydroisoquinolin-1(2H)-one]: the IC50 lay within 11 to 100 nM.
For `C[C@@H]1CN(c2ccc(-c3nc(-c4ccc5c(c4)CCNC5=O)c(N)nc3F)cc2CN(C)C)C[C@H](C)O1` [Example I-198, 6-(3-amino-6-(3-((dimethylamino)methyl)-4-((2R,6S)-2,6-dimethylmorpholino)phenyl)-5-fluoropyrazin-2-yl)-3,4-dihydroisoquinolin-1(2H)-one], the half-maximal inhibitory concentration (IC50) lay in the range of 0.1 to 10 nM.
On to `CN(C)Cc1cc(-c2nc(-c3ccc4c(=O)[nH]cc(F)c4c3)c(N)nc2F)c(F)cc1N1CCOCC1` [Example I-259, 6-(3-amino-6-(5-((dimethylamino)methyl)-2-fluoro-4-morpholinophenyl)-5-fluoropyrazin-2-yl)-4-fluoroisoquinolin-1(2H)-one], for which the IC50 lay in the range of 11 to 100 nM.
On to `COC1CN(Cc2cc(-c3nc(-c4ccc5c(c4)CCNC5=O)c(N)nc3F)ccc2N2CCOCC2)C1` [Example I-188, 6-(3-amino-5-fluoro-6-(3-((3-methoxyazetidin-1-yl)methyl)-4-morpholinophenyl)pyrazin-2-yl)-3,4-dihydroisoquinolin-1(2H)-one], for which the IC50 fell in the range of 0.1 to 10 nM.
In the case of `CN(C)Cc1cc(-c2nc(-c3cc(F)c4c(=O)[nH]cc(F)c4c3)c(N)nc2F)ccc1N1CCOCC1` [Example I-120, 6-(3-amino-6-(3-((dimethylamino)methyl)-4-morpholinophenyl)-5-fluoropyrazin-2-yl)-4,8-difluoroisoquinolin-1(2H)-one], the IC50 was in the range of 0.1 to 10 nM.

The record behind these values is patent US20240425479A1, “HALO-SUBSTITUTED AMINO AZA-HETEROARYL COMPOUNDS AS INHIBITORS OF THE HAEMATOPOIETIC PROGENITOR KINASE 1 (HPK1)” (priority 2021, published 2024).
